Key:
K562 = test: Antiproliferative activity against human K562 cells after 72 hrs; type: functional; details: K562, 72 h
HUVEC = test: Antiproliferative activity against HUVEC cells after 72 hrs; type: functional; details: Homo sapiens
[1] = Cytotoxicity against human HeLa cells assessed as cell death; type: cell-based

CC/C(=C(\c1ccccc1)c1ccc(OCCN(C)C)cc1)c1ccccc1 [TAMOXIFEN]
GI50 (K562): 5.2 µM

CC(=O)[C@]1(O)Cc2c(O)c3c(c(O)c2[C@@H](O[C@H]2C[C@H](N)[C@H](O)[C@H](C)O2)C1)C(=O)c1ccccc1C3=O [IDARUBICIN]
GI50 (K562): 3.3 µM

CC(=O)/C(C)=C/C=C/C=C\C=C\C=C\C=C\C=C\C=C/CC(=O)O
GI50 (HUVEC): 71.6 µM | CC50 [1]: 44.1 µM | GI50 (K562): 15.4 µM

CC(=O)/C(C)=C/C=C/C=C\C=C\C=C\C=C\C=C\C=C/C=C/CC(=O)O
GI50 (HUVEC): 17.4 µM | CC50 [1]: 45.1 µM | GI50 (K562): 1.1 µM

CCc1c2c(nc3ccc(OC(=O)N4CCC(N5CCCCC5)CC4)cc13)-c1cc3c(c(=O)n1C2)COC(=O)[C@]3(O)CC [IRINOTECAN]
GI50 (K562): 1.9 µM
